Results taken from ChEMBL document CHEMBL1201862, “PubChem BioAssay data set” (2004).
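Test compounds were applied to cells in 96-well plates for 48 hours at 5 doses. At the GI50, growth is halved.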 Activity calls are given as the source filed them. No stated cut-off is given here; in the data, active = GI50 up to about 1.1 µM and inactive = higher.

What was measured:
Experiment in all cases: NCI tumour cell line growth inhibition, 48 h
SF-295 = tested on: SF-295
IGROV-1 = tested on: IGROV-1
ACHN = tested on: ACHN
UACC-257 = tested on: UACC-257
MCF7 = tested on: MCF7
CCRF-CEM = tested on: CCRF-CEM
COLO 205 = tested on: COLO 205
EKVX = tested on: EKVX
NCI-H522 = tested on: NCI-H522
HL-60 = tested on: HL-60
SK-MEL-5 = tested on: SK-MEL-5
SF-539 = tested on: SF-539
BT-549 = tested on: BT-549
RXF 393 = tested on: RXF 393
A498 = tested on: A498
SK-MEL-28 = tested on: SK-MEL-28
Hs-578T = tested on: Hs-578T
NCI/ADR-RES = tested on: NCI/ADR-RES
NCI-H460 = tested on: NCI-H460
HCT-116 = tested on: HCT-116
MDA-N = tested on: MDA-N
T47D = tested on: T47D
UO-31 = tested on: UO-31
SN12C = tested on: SN12C
M14 = tested on: M14
HT-29 = tested on: HT-29
A549 = tested on: A549
U-251 = tested on: U-251
Malme-3M = tested on: Malme-3M
HCT-15 = tested on: HCT-15
HCC 2998 = tested on: HCC 2998
K562 = tested on: K562
KM12 = tested on: KM12
CAKI-1 = tested on: CAKI-1
OVCAR-5 = tested on: OVCAR-5
DU-145 = tested on: DU-145
SK-OV-3 = tested on: SK-OV-3
SNB-75 = tested on: SNB-75
SR = tested on: SR
NCI-H23 = tested on: NCI-H23
786-0 = tested on: 786-0
NCI-H226 = tested on: NCI-H226
SNB-19 = tested on: SNB-19
LOX IMVI = tested on: LOX IMVI
OVCAR-4 = tested on: OVCAR-4
HOP-62 = tested on: HOP-62
OVCAR-8 = tested on: OVCAR-8
UACC-62 = tested on: UACC-62
PC-3 = tested on: PC-3
SK-MEL-2 = tested on: SK-MEL-2
TK-10 = tested on: TK-10
SW-620 = tested on: SW-620
HOP-92 = tested on: HOP-92
MOLT-4 = tested on: MOLT-4
OVCAR-3 = tested on: OVCAR-3
MDA-MB-231 = tested on: MDA-MB-231
SF-268 = tested on: SF-268
RPMI-8226 = tested on: RPMI-8226
MDA-MB-435 = tested on: MDA-MB-435
M19-MEL = tested on: M19-MEL
DMS-273 = tested on: DMS-273
DMS-114 = tested on: DMS-114
KM-20L2 = tested on: KM-20L2

## CCC12C=CCN3CCC4(c5cc(C(c6ccc(OC)cc6)C6Cc7ccccc7N6)c(OC)cc5N(C)C4C(O)(C(=O)OC)C1O)C32 (stereo not drawn)
SF-295
  GI50: 18.3 µM (inactive)
IGROV-1
  GI50: 16.9 µM (inactive)
ACHN
  GI50: 19.2 µM (inactive)
UACC-257
  GI50: 20.5 µM (inactive)
MCF7
  GI50: 5.19 µM (inactive)
CCRF-CEM
  GI50: 3.67 µM (inactive)
COLO 205
  GI50: 8.36 µM (inactive)
EKVX
  GI50: 36.1 µM (inactive)
NCI-H522
  GI50: 16.4 µM (inactive)
HL-60
  GI50: 1.72 µM (inactive)
SK-MEL-5
  GI50: 12.1 µM (inactive)
SF-539
  GI50: 21 µM (inactive)
BT-549
  GI50: 19.9 µM (inactive)
RXF 393
  GI50: 14.3 µM (inactive)
A498
  GI50: 11.6 µM (inactive)
SK-MEL-28
  GI50: 30.2 µM (inactive)
Hs-578T
  GI50: 63.7 µM (inactive)
NCI/ADR-RES
  GI50: 26.1 µM (inactive)
NCI-H460
  GI50: 17.6 µM (inactive)
HCT-116
  GI50: 14.4 µM (inactive)
MDA-N
  GI50: 18.8 µM (inactive)
T47D
  GI50: 2.9 µM (inactive)
UO-31
  GI50: 10.2 µM (inactive)
SN12C
  GI50: 37.4 µM (inactive)
M14
  GI50: 24.2 µM (inactive)
HT-29
  GI50: 18.2 µM (inactive)
A549
  GI50: 20.4 µM (inactive)
U-251
  GI50: 11 µM (inactive)
Malme-3M
  GI50: 36.6 µM (inactive)
HCT-15
  GI50: 22 µM
HCC 2998
  GI50: 20 µM (inactive)
K562
  GI50: 3.42 µM (inactive)
KM12
  GI50: 5.89 µM (inactive)
CAKI-1
  GI50: 18.7 µM (inactive)
OVCAR-5
  GI50: 36.7 µM (inactive)
DU-145
  GI50: 29 µM (inactive)
SK-OV-3
  GI50: 29.4 µM (inactive)
SNB-75
  GI50: 3.66 µM (inactive)
SR
  GI50: 8.04 µM (inactive)
NCI-H23
  GI50: 27 µM (inactive)
786-0
  GI50: 18.7 µM (inactive)
NCI-H226
  GI50: 32.7 µM (inactive)
SNB-19
  GI50: 17.9 µM (inactive)
LOX IMVI
  GI50: 14.1 µM (inactive)
OVCAR-4
  GI50: 9.33 µM (inactive)
HOP-62
  GI50: 26.5 µM (inactive)
OVCAR-8
  GI50: 15.1 µM (inactive)
UACC-62
  GI50: 11.8 µM (inactive)
PC-3
  GI50: 12.6 µM (inactive)
SK-MEL-2
  GI50: 15.3 µM (inactive)
TK-10
  GI50: 22.9 µM (inactive)
SW-620
  GI50: 21.5 µM (inactive)
HOP-92
  GI50: 2.81 µM (inactive)
MOLT-4
  GI50: 2.26 µM (inactive)
OVCAR-3
  GI50: 19.2 µM (inactive)
MDA-MB-231
  GI50: 16.1 µM (inactive)
SF-268
  GI50: 44.6 µM (inactive)
RPMI-8226
  GI50: 1.83 µM (inactive)
MDA-MB-435
  GI50: 12.7 µM (inactive)

## CC(=O)O[C@@]12CO[C@@H]1C[C@@H](O)[C@@]1(C)C(=O)[C@H](O)C3=C(C)[C@@H](OC(=O)[C@H](O)[C@@H](NC(=O)c4ccccc4)c4ccccc4)C[C@@](O)([C@@H](OC(=O)c4ccccc4)C12)C3(C)C (stereo partly drawn)
M19-MEL
  GI50: < 0.01 µM (active)
SF-295
  GI50: 0.268 µM (active)
IGROV-1
  GI50: 0.0218 µM (active)
ACHN
  GI50: 2.77 µM (inactive)
DMS-273
  GI50: < 0.01 µM (active)
UACC-257
  GI50: 0.0217 µM (active)
MCF7
  GI50: < 0.01 µM (active)
CCRF-CEM
  GI50: 0.0103 µM (active)
COLO 205
  GI50: < 0.01 µM (active)
EKVX
  GI50: 4.81 µM (inactive)
NCI-H522
  GI50: < 0.0122 µM (active)
HL-60
  GI50: < 0.01 µM (active)
DMS-114
  GI50: < 0.01 µM (active)
SF-539
  GI50: < 0.0114 µM (active)
BT-549
  GI50: 0.0243 µM (active)
RXF 393
  GI50: 0.222 µM (active)
A498
  GI50: 0.213 µM (active)
SK-MEL-28
  GI50: 0.748 µM (active)
Hs-578T
  GI50: < 0.01 µM (active)
NCI/ADR-RES
  GI50: 20.8 µM (inactive)
NCI-H460
  GI50: 0.0217 µM (active)
HCT-116
  GI50: < 0.01 µM (active)
MDA-N
  GI50: < 0.01 µM (active)
T47D
  GI50: 0.0272 µM (active)
UO-31
  GI50: 4.51 µM (inactive)
SN12C
  GI50: 0.0184 µM (active)
M14
  GI50: 0.0363 µM (active)
HT-29
  GI50: < 0.01 µM (active)
A549
  GI50: 0.083 µM (active)
U-251
  GI50: 0.141 µM (active)
HCT-15
  GI50: 3.03 µM
HCC 2998
  GI50: 0.0212 µM (active)
K562
  GI50: 0.0156 µM (active)
KM12
  GI50: < 0.01 µM (active)
KM-20L2
  GI50: 0.0134 µM (active)
CAKI-1
  GI50: 1.82 µM (inactive)
OVCAR-5
  GI50: 0.0832 µM (active)
DU-145
  GI50: 0.0301 µM (active)
SK-OV-3
  GI50: 0.026 µM (active)
SNB-75
  GI50: < 0.01 µM (active)
SR
  GI50: 0.0438 µM (active)
NCI-H23
  GI50: 0.0379 µM (active)
786-0
  GI50: 0.0628 µM (active)
NCI-H226
  GI50: 17.4 µM (inactive)
SNB-19
  GI50: 0.185 µM (active)
LOX IMVI
  GI50: < 0.0303 µM (active)
OVCAR-4
  GI50: 24.7 µM (inactive)
HOP-62
  GI50: 0.0893 µM (active)
OVCAR-8
  GI50: 0.0803 µM (active)
UACC-62
  GI50: < 0.01 µM (active)
PC-3
  GI50: 0.016 µM (active)
SK-MEL-2
  GI50: < 0.01 µM (active)
TK-10
  GI50: 0.705 µM (active)
SW-620
  GI50: < 0.01 µM (active)
MOLT-4
  GI50: < 0.01 µM (active)
OVCAR-3
  GI50: < 0.0162 µM (active)
MDA-MB-231
  GI50: 0.0408 µM (active)
SF-268
  GI50: 0.0594 µM (active)
RPMI-8226
  GI50: < 0.01 µM (active)
MDA-MB-435
  GI50: < 0.01 µM (active)

## C=C1C(=O)O[C@@H]2C[C@@H](C)[C@@H]3[C@@H](OC4OC(COC(C)=O)C(O)C(O)C4O)CC(=O)[C@@]3(C)C[C@H]12 (stereo partly drawn)
SF-295
  GI50: 17.3 µM (inactive)
IGROV-1
  GI50: 2.17 µM (inactive)
ACHN
  GI50: 0.508 µM (active)
UACC-257
  GI50: 1.68 µM (inactive)
MCF7
  GI50: 0.728 µM (active)
CCRF-CEM
  GI50: 0.238 µM (active)
COLO 205
  GI50: 0.703 µM (active)
EKVX
  GI50: 1.87 µM (inactive)
NCI-H522
  GI50: 0.127 µM (active)
HL-60
  GI50: 0.211 µM (active)
SK-MEL-5
  GI50: 1.74 µM (inactive)
SF-539
  GI50: 2.42 µM (inactive)
BT-549
  GI50: 1.34 µM (inactive)
RXF 393
  GI50: 1.85 µM (inactive)
A498
  GI50: 15.5 µM (inactive)
SK-MEL-28
  GI50: 2.15 µM (inactive)
Hs-578T
  GI50: 25.2 µM (inactive)
NCI/ADR-RES
  GI50: 0.855 µM (active)
NCI-H460
  GI50: 14.3 µM (inactive)
HCT-116
  GI50: 0.659 µM (active)
MDA-N
  GI50: 1.66 µM (inactive)
T47D
  GI50: 2.84 µM (inactive)
UO-31
  GI50: 1.83 µM (inactive)
SN12C
  GI50: 1.54 µM (inactive)
M14
  GI50: 1.43 µM (inactive)
HT-29
  GI50: 1.22 µM (inactive)
A549
  GI50: 8.67 µM (inactive)
U-251
  GI50: 7.19 µM (inactive)
Malme-3M
  GI50: 0.283 µM (active)
HCT-15
  GI50: 0.218 µM
HCC 2998
  GI50: 1.75 µM (inactive)
K562
  GI50: 0.596 µM (active)
KM12
  GI50: 11 µM (inactive)
CAKI-1
  GI50: 0.508 µM (active)
OVCAR-5
  GI50: 3.54 µM (inactive)
DU-145
  GI50: 8.38 µM (inactive)
SK-OV-3
  GI50: 19.1 µM (inactive)
SNB-75
  GI50: 7.31 µM (inactive)
SR
  GI50: 1.6 µM (inactive)
NCI-H23
  GI50: 12.5 µM (inactive)
786-0
  GI50: 0.396 µM (active)
NCI-H226
  GI50: 11 µM (inactive)
SNB-19
  GI50: 20.2 µM (inactive)
LOX IMVI
  GI50: 0.63 µM (active)
OVCAR-4
  GI50: 3.31 µM (inactive)
HOP-62
  GI50: 17.3 µM (inactive)
OVCAR-8
  GI50: 1.36 µM (inactive)
UACC-62
  GI50: 1.55 µM (inactive)
PC-3
  GI50: 10.3 µM (inactive)
SK-MEL-2
  GI50: 7.5 µM (inactive)
TK-10
  GI50: 1.68 µM (inactive)
SW-620
  GI50: 0.574 µM (active)
HOP-92
  GI50: 0.902 µM (active)
MOLT-4
  GI50: 1.94 µM (inactive)
OVCAR-3
  GI50: 1.1 µM (active)
MDA-MB-231
  GI50: 4.36 µM (inactive)
SF-268
  GI50: 9.77 µM (inactive)
RPMI-8226
  GI50: 1.39 µM (inactive)
MDA-MB-435
  GI50: 2.26 µM (inactive)
